One assay addresses T1, human TYK2 (Homo sapiens, UniProt P29597).
T1 construct: catalytic domain (amino acids 871-1187; catalog number 08-147); purchased Carna Biosciences 08-147
T1 sequence (P29597 871-1187): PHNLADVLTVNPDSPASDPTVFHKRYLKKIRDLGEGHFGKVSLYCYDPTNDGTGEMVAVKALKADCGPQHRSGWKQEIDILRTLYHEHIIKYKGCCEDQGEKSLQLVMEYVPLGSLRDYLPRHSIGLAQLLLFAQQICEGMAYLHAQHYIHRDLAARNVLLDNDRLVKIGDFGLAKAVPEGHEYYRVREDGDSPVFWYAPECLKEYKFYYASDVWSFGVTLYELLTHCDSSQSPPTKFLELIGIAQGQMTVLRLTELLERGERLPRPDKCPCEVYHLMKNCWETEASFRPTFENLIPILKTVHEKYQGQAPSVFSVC
Description: TYK2 inhibition assay. The assay is classed as biochemical. As to conditions: recombinant human TYK2 catalytic domain, polyGT substrate. A digest of the protocol: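 Radiometric kinase reaction run 90 min at 30 °C, stopped with phosphoric acid, washed and scintillation-counted.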

Assay [1] concerns pSTAT1(2)-luciferase reporter in HeLa cells triggered with human OSM. Briefly: JAK-STAT signalling assay. Format: cell-based. As to conditions: HeLa cells, pSTAT1(2)-luciferase reporter, human OSM 33 ng/mL, read-out: JAK-STAT IC50. As to the method:
JAK-STAT Signalling Assay
HeLa cells were maintained in Dulbecco's Modified Eagle's Medium (DMEM) containing 10% heat inactivated fetal calf serum, 100 U/mL penicillin and 100 μg/mL streptomycin. HeLa cells were used at 70% confluence for transfection. 20,000 cells in 87 μL cell culture medium were transiently transfected with 40 ng pSTAT1(2)-luciferase reporter (Panomics), 8 ng of LacZ reporter as internal control reporter and 52 ng of pBSK using 0.32 μL Jet-PEI (Polyplus) as transfection reagent per well in 96-well plate format. After overnight incubation at 37° C., 5% CO2, transfection medium was removed. 81 μL of DMEM+1.5% heat inactivated fetal calf serum was added. 9 μL compound at 10× concentration was added for 60 min and then 10 μL of human OSM (Peprotech) at 33 ng/mL final concentration.
After overnight incubation at 37° C., 5% CO2 cells were lysed by adding 100 μL lysis buffer/well (PBS, 0.9 mM CaCl2, 0.5 mM MgCl2, 10% Trehalose, 0.05% Tergitol NP9, 0.3% BSA).
40 μL of cell lysate was used to read β-galactosidase activity by adding 180 μL β-Gal solution (30 μL ONPG 4 mg/mL+150 μL β-Galactosidase buffer (0.06 M Na2HPO4, 0.04 M NaH2PO4, 1 mM MgCl2)) for 20 min.
Luciferase activity was measured using 40 μL cell lysate plus 40 μL of Steadylite as described by the manufacturer (Perkin Elmer), on the Envision (Perkin Elmer).
The positive and negative controls were used to calculate z′ and ‘percent inhibition’ (PIN) values.
Percentage inhibition=((fluorescence determined in the presence of vehicle−fluorescence determined for sample with test compound present)divided by(fluorescence determined in the presence of vehicle−fluorescence determined for sample without trigger))*100.
PIN values were plotted for compounds tested in dose-response and EC50 values were derived.
A general note: Reporter assays use an easily measured gene product as a stand-in for the process of interest.

A further assay addresses T2, human JAK3 (Homo sapiens, UniProt P52333).
T2 construct: catalytic domain (amino acids 781-1124; catalog number PV3855); purchased Invitrogen PV3855
Description: JAK3 inhibition assay. Format: biochemical. To be noted: recombinant human JAK3 catalytic domain; polyGT substrate. The procedure, abridged:
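Radiometric kinase assay: 0.5 ng JAK3 with 2.5 μg polyGT in Tris pH 7.5/MgCl2 buffer, 1 μM ATP plus 0.25 μCi 33P-γ-ATP, 1% DMSO, 45 min at 30 °C, stopped with phosphoric acid.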

The target of a further assay is T3, human JAK1 (Homo sapiens, UniProt P23458).
T3 construct: catalytic domain, amino acids 866-1154; catalog number PV4774; purchased Invitrogen PV4774
Briefly: JAK1 inhibition assay (polyGT substrate / Ulight-JAK1 peptide). Format: biochemical. As to conditions: recombinant human JAK1 catalytic domain; polyGT or Ulight-JAK1 peptide assay. The procedure, abridged:
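Two formats. PolyGT radiometric: 45 min at 30 °C, stopped with phosphoric acid, counted as cpm. Ulight-JAK1 peptide: 60 min at room temperature, stopped with Eu-anti-phosphotyrosine/EDTA, read as RFU. Percent inhibition normalised to vehicle and 10 μM staurosporine.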

Read-outs that look alike come from different tables or passages of the source.

T3 sequence (P23458 866-1154): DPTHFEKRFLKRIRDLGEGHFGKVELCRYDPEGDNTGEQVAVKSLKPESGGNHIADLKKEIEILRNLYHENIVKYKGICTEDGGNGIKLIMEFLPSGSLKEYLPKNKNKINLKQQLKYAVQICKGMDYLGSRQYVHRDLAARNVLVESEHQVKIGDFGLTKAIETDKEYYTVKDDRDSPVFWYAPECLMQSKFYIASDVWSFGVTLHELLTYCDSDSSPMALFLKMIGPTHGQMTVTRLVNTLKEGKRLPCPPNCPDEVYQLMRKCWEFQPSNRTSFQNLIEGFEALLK
T2 sequence (P52333 781-1124): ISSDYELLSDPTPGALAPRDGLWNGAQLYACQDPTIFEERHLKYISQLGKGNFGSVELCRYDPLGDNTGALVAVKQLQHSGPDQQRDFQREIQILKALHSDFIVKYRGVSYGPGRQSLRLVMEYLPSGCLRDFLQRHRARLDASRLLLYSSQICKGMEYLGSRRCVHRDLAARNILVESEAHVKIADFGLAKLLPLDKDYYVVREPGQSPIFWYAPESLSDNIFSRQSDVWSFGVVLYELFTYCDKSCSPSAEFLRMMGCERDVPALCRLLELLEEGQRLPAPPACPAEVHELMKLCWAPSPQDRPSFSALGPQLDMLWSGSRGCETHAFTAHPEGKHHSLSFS

On to `CCc1cc(C2=CCN(S(=O)(=O)C(C)C)CC2)ccc1N(C)c1cc2c(cn1)ncn2C` [Compound 246, N-(2-ethyl-4-(1-(isopropylsulfonyl)-1,2,3,6-tetrahydropyridin-4-yl)phenyl)-N,1-dimethyl-1H-imidazo[4,5-c]pyridin-6-amine], for which the half-maximal inhibitory concentration (IC50) (usually the concentration that inhibits the measured activity by half) lay within 0.01 to 100 nM at human TYK2; 1 to 500 nM in assay [1] (Homo sapiens, HeLa); 0.01 to 100 nM at human JAK3; 0.01 to 100 nM on human JAK1.
`CCc1cc(-c2cnn(Cc3ccccc3)c2)ccc1N(C)c1cc2c(cn1)ncn2C` [Compound 139, N-(4-(1-benzyl-1H-pyrazol-4-yl)-2-ethylphenyl)-N,1-dimethyl-1H-imidazo[4,5-c]pyridin-6-amine]: the IC50 at human TYK2 lay within 0.01 to 100 nM; in assay [1] (Homo sapiens, HeLa), 501 to 1000 nM; at human JAK3 it was 101 to 500 nM; at human JAK1, 0.01 to 100 nM.
Take `CCc1cc(C2=CCN(C(=O)C(C)NC(=O)OC(C)(C)C)CC2)ccc1N(C)c1cc2c(cn1)ncn2C` (stereo not drawn) [Compound 249, tert-butyl 1-(4-(3-ethyl-4-(methyl(1-methyl-1H-imidazo[4,5-c]pyridin-6-yl)amino)phenyl)-5,6-dihydropyridin-1(2H)-yl)-1-oxopropan-2-ylcarbamate]: the IC50 on human TYK2 was in the range of 0.01 to 100 nM; in assay [1] (Homo sapiens, HeLa), 1 to 500 nM; on human JAK3, 0.01 to 100 nM; on human JAK1 it was 0.01 to 100 nM.
With `CCc1cc(CN2CCS(=O)(=O)CC2)ccc1N(C)c1cc2c(cn1)ncn2C` [Compound 143, [4-(1,1-Dioxothiomorpholin-4-ylmethyl)-2-ethyl-phenyl]-methyl-(1-methyl-1H-imidazo[4,5-c]pyridin-6-yl)-amine], the IC50 on human TYK2 is 501 to 1000 nM; in assay [1] (Homo sapiens, HeLa), more than 1000 nM; on human JAK3, 501 to 1000 nM; on human JAK1, 0.01 to 100 nM.
On to `CCc1cc(-c2cscn2)ccc1N(C)c1cc2c(cn1)ncn2C` [Compound 150, N-(2-ethyl-4-(thiazol-4-yl)phenyl)-N,1-dimethyl-1H-imidazo[4,5-c]pyridin-6-amine], for which the concentration for half-maximal inhibition (IC50) is 0.01 to 100 nM at human TYK2; 1 to 500 nM in assay [1] (Homo sapiens, HeLa); 101 to 500 nM at human JAK3; 0.01 to 100 nM on human JAK1.
For the compound `CN(c1cc2c(cn1)ncn2C)c1ccc(C2CCN(S(C)(=O)=O)CC2)cc1OC(F)F` [Compound 287, N-(2-(Difluoromethoxy)-4-(1-(methylsulfonyl)piperidin-4-yl)phenyl)-N,1-dimethyl-1H-imidazo[4,5-c]pyridin-6-amine], the half-inhibitory concentration (IC50) at human TYK2 lay within 0.01 to 100 nM; in assay [1] it was 1 to 500 nM; on human JAK3, 0.01 to 100 nM; on human JAK1, 0.01 to 100 nM.
With `CCc1cc(C2CCN(C(=O)COC)CC2)ccc1N(C)c1cc2c(cn1)ncn2C` [Compound 226, 1-(4-(3-ethyl-4-(methyl(1-methyl-1H-imidazo[4,5-c]pyridin-6-yl)amino)phenyl)piperidin-1-yl)-2-methoxyethanone], the IC50 at human TYK2 is 0.01 to 100 nM; in assay [1], more than 1000 nM; at human JAK3, 101 to 500 nM; at human JAK1, 0.01 to 100 nM.
Regarding `CCc1cc(C2=CCN(C(=O)C(C)OC)CC2)ccc1N(C)c1cc2c(cn1)ncn2C` (stereo not drawn) [Compound 250, 1-(4-(3-ethyl-4-(methyl(1-methyl-1H-imidazo[4,5-c]pyridin-6-yl)amino)phenyl)-5,6-dihydropyridin-1(2H)-yl)-2-methoxypropan-1-one], the IC50 on human TYK2 was in the range of 0.01 to 100 nM; in assay [1] (Homo sapiens, HeLa) it was 1 to 500 nM; at human JAK3 it was 501 to 1000 nM; at human JAK1, 0.01 to 100 nM.
`CCc1cc(CNC(=O)NC)ccc1N(C)c1cc2c(cn1)ncn2C` [Compound 270, 1-(3-ethyl-4-(methyl(1-methyl-1H-imidazo[4,5-c]pyridin-6-yl)amino)benzyl)-3-methylurea]: the IC50 is more than 1000 nM on human TYK2; more than 1000 nM in assay [1] (Homo sapiens, HeLa); more than 1000 nM at human JAK3; 101 to 500 nM at human JAK1.
`CCc1cc(C2=CCN(C(=O)C(C)(C)O)CC2)ccc1N(C)c1cc2c(cn1)ncn2C` [Compound 231, 1-(4-(3-ethyl-4-(methyl(1-methyl-1H-imidazo[4,5-c]pyridin-6-yl)amino)phenyl)-5,6-dihydropyridin-1(2H)-yl)-2-hydroxy-2-methylpropan-1-one]: the IC50 lay in the range of 0.01 to 100 nM on human TYK2; 1 to 500 nM in assay [1] (Homo sapiens, HeLa); 101 to 500 nM at human JAK3; 0.01 to 100 nM at human JAK1.
Consider `CCc1cc(CNC)ccc1N(C)c1cc2c(cn1)ncn2C` [Compound 135, N-(2-ethyl-4-((methylamino)methyl)phenyl)-N,1-dimethyl-1H-imidazo[4,5-c]pyridin-6-amine], for which the half-maximal inhibitory concentration (IC50) at human TYK2 was more than 1000 nM; in assay [1] (Homo sapiens, HeLa), more than 1000 nM; at human JAK3 it was more than 1000 nM; on human JAK1, 0.01 to 100 nM.
As to `COc1cc(C2CCN(C(=O)CC#N)CC2)ncc1N(C)c1cc2c(cn1)ncn2C` [Compound 265], the IC50 at human TYK2 is more than 1000 nM; in assay [1], more than 1000 nM; at human JAK3, more than 1000 nM; on human JAK1, 501 to 1000 nM.
`CCc1cc(-c2cncc(S(C)(=O)=O)c2)ccc1N(C)c1cc2c(cn1)ncn2C` [Compound 218, N-(2-ethyl-4-(5-(methylsulfonyl)pyridin-3-yl)phenyl)-N,1-dimethyl-1H-imidazo[4,5-c]pyridin-6-amine]: the half-inhibitory concentration (IC50) on human TYK2 is 501 to 1000 nM; in assay [1] (Homo sapiens, HeLa) it was more than 1000 nM; on human JAK3, more than 1000 nM; at human JAK1, 0.01 to 100 nM.
As to `CN(c1cc2c(cn1)ncn2C)c1ccc(C#N)cc1F` [Compound 267, 3-fluoro-4-(methyl(1-methyl-1H-imidazo[4,5-c]pyridin-6-yl)amino)benzonitrile], the half-maximal inhibitory concentration (IC50) was more than 1000 nM at human TYK2; more than 1000 nM in assay [1] (Homo sapiens, HeLa); more than 1000 nM at human JAK3; 501 to 1000 nM at human JAK1.
For the compound `COC(=O)NCc1ccc(N(C)c2cc3c(cn2)ncn3C)c(F)c1` [Compound 283, {3-Fluoro-4-[methyl-(1-methyl-1H-imidazo[4,5-c]pyridin-6-yl)-amino]-benzyl}-carbamic acid methyl ester], the half-inhibitory concentration (IC50) is 101 to 500 nM at human TYK2; more than 1000 nM in assay [1] (Homo sapiens, HeLa); more than 1000 nM on human JAK3; 0.01 to 100 nM on human JAK1.
As to `CCCn1cc(-c2ccc(N(C)c3cc4c(cn3)ncn4C)c(CC)c2)cn1` [Compound 240, N-(2-ethyl-4-(1-propyl-1H-pyrazol-4-yl)phenyl)-N,1-dimethyl-1H-imidazo[4,5-c]pyridin-6-amine], the IC50 was 0.01 to 100 nM at human TYK2; 501 to 1000 nM in assay [1] (Homo sapiens, HeLa); 501 to 1000 nM at human JAK3; 0.01 to 100 nM at human JAK1.
Regarding `CCc1cc(C2=CCN(C(=O)OC(C)(C)C)CC2)ccc1N(C)c1cc2c(cn1)ncn2C` [Compound 154, tert-butyl 4-(3-ethyl-4-(methyl(1-methyl-1H-imidazo[4,5-c]pyridin-6-yl)amino)phenyl)-5,6-dihydropyridine-1(2H)-carboxylate], the IC50 at human TYK2 is 101 to 500 nM; in assay [1] (Homo sapiens, HeLa), more than 1000 nM; on human JAK3 it was more than 1000 nM; on human JAK1, 0.01 to 100 nM.
With `CCc1cc(-c2cnn(Cc3ccc(Cl)cc3)c2)ccc1N(C)c1cc2c(cn1)ncn2C` [Compound 239, N-(4-(1-(4-chlorobenzyl)-1H-pyrazol-4-yl)-2-ethylphenyl)-N,1-dimethyl-1H-imidazo[4,5-c]pyridin-6-amine], the concentration for half-maximal inhibition (IC50) fell in the range of 101 to 500 nM at human TYK2; 1 to 500 nM in assay [1] (Homo sapiens, HeLa); 101 to 500 nM on human JAK3; 0.01 to 100 nM at human JAK1.

The values are drawn from patent US20130217664A1, “NOVEL COMPOUNDS USEFUL FOR THE TREATMENT OF DEGENERATIVE AND INFLAMMATORY DISEASES” (priority 2012, published 2013).
